In patent US6737383B1, “Herbicidal oxadiazolidines” (priority 1999, dated 2004):

Legend:
rape = assay: Test B pre/postemergence rape; format: in vivo, Brassica napus
In short: (§1)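 Test chemicals in a non-phytotoxic solvent mixture with surfactant were sprayed preemergence onto planted seeds and postemergence onto plants 2 to 18 cm tall (1- to 4-leaf stage). After twelve to sixteen days in a greenhouse, injury was visually rated against untreated controls from 0 (no effect) to 10 (complete control).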

wild oat = assay: Test B pre/postemergence wild oat; format: in vivo, Avena fatua
In short: as §1

velvetleaf = assay: Test B pre/postemergence velvetleaf; format: in vivo, Abutilon theophrasti
In short: as §1

bedstraw = assay: Test B pre/postemergence bedstraw; format: in vivo, Galium aparine
In short: as §1

wheat = assay: Test B pre/postemergence wheat; format: in vivo, Triticum aestivum
In short: as §1

crabgrass = assay: Test B pre/postemergence crabgrass; format: in vivo, Digitaria sanguinalis
In short: as §1

corn = assay: Test B pre/postemergence corn; format: in vivo, Zea mays
In short: as §1

morningglory = assay: Test B pre/postemergence morningglory; format: in vivo, Ipomoea hederacea
In short: as §1

surinam grass = assay: Test B pre/postemergence surinam grass; format: in vivo, Brachiaria decumbens
In short: as §1

cocklebur = assay: Test B pre/postemergence cocklebur; format: in vivo, Xanthium strumarium
In short: as §1

soybean = assay: Test B pre/postemergence soybean; format: in vivo, Glycine max
In short: as §1

giant foxtail = assay: Test B pre/postemergence giant foxtail; format: in vivo, Setaria faberii
In short: as §1

blackgrass = assay: Test B pre/postemergence blackgrass; format: in vivo, Alopecurus myosuroides
In short: as §1

sugar beet = assay: Test B pre/postemergence sugar beet; format: in vivo, Beta vulgaris
In short: as §1

pigweed = assay: Test B pre/postemergence pigweed; format: in vivo, Amaranthus retroflexus
In short: as §1

purple nutsedge = assay: Test B pre/postemergence purple nutsedge; format: in vivo, Cyperus rotundus
In short: as §1

[1] = Postemergence, Rate 62 g/ha, scale 0 to 10, 0 is no effect, 10 is complete control
[2] = Postemergence, Rate 125 g/ha, scale of 0 to 10 where 0 is no effect and 10 is complete control
[3] = Preemergence, Rate 62 g/ha, scale of 0 to 10 where 0 is no effect and 10 is complete control
[4] = Preemergence, Rate 125 g/ha, scale of 0 to 10 where 0 is no effect and 10 is complete control
[5] = Preemergence, Rate 250 g/ha, scale 0 (no effect) to 10 (complete control)
[6] = Rate 250 g/ha, Postemergence, scale 0 to 10, 0 is no effect, 10 is complete control
[7] = Rate 500 g/ha, Postemergence, scale 0 to 10, 0 is no effect, 10 is complete control
[8] = Preemergence, Rate 500 g/ha, scale of 0 to 10 where 0 is no effect and 10 is complete control

SMILES: CC(C)N(C(=O)n1oc(=O)n(CC(F)F)c1=O)c1ccc(F)cc1 [Compound 710]
- Plant response rating, Rape (rape; [1]): 0
- Rape plant response rating (rape; [2]): 0
- Rape plant response rating (rape; [3]): 7
- Plant response rating, Rape (rape; [4]): 8
- Rape plant response rating (rape; [5]): 8
- Rape plant response rating (rape; [6]): 3
- Rape plant response rating (rape; [7]): 5
- Plant response rating, Wild oats (wild oat; [1]): 1
- Wild oats plant response rating (wild oat; [2]): 3
- Wild oats plant response rating (wild oat; [3]): 8
- Plant response rating, Wild oats (wild oat; [4]): 9
- Wild oats plant response rating (wild oat; [5]): 9
- Wild oats plant response rating (wild oat; [6]): 5
- Wild oats plant response rating (wild oat; [7]): 6
- Plant response rating, Velvetleaf (velvetleaf; [1]): 5
- Velvetleaf plant response rating (velvetleaf; [2]): 6
- Velvetleaf plant response rating (velvetleaf; [3]): 5
- Plant response rating, Velvetleaf (velvetleaf; [4]): 6
- Velvetleaf plant response rating (velvetleaf; [5]): 7
- Velvetleaf plant response rating (velvetleaf; [6]): 6
- Velvetleaf plant response rating (velvetleaf; [7]): 6
- Bedstraw plant response rating (bedstraw; [2]): 1
- Bedstraw plant response rating (bedstraw; [3]): 3
- Plant response rating, Bedstraw (bedstraw; [4]): 3
- Bedstraw plant response rating (bedstraw; [5]): 5
- Plant response rating, Bedstraw (bedstraw; [8]): 7
- Bedstraw plant response rating (bedstraw; [6]): 6
- Bedstraw plant response rating (bedstraw; [7]): 8
- Plant response rating, Wheat (wheat; [1]): 0
- Wheat plant response rating (wheat; [2]): 0
- Wheat plant response rating (wheat; [3]): 5
- Plant response rating, Wheat (wheat; [4]): 6
- Wheat plant response rating (wheat; [5]): 7
- Wheat plant response rating (wheat; [6]): 4
- Wheat plant response rating (wheat; [7]): 6
- Plant response rating, Crabgrass (crabgrass; [1]): 8
- Crabgrass plant response rating (crabgrass; [2]): 9
- Crabgrass plant response rating (crabgrass; [3]): 10
- Plant response rating, Crabgrass (crabgrass; [4]): 10
- Crabgrass plant response rating (crabgrass; [5]): 10
- Crabgrass plant response rating (crabgrass; [6]): 9
- Crabgrass plant response rating (crabgrass; [7]): 9
- Plant response rating, Corn (corn; [1]): 0
- Corn plant response rating (corn; [2]): 0
- Corn plant response rating (corn; [3]): 0
- Plant response rating, Corn (corn; [4]): 0
- Corn plant response rating (corn; [5]): 0
- Corn plant response rating (corn; [6]): 0
- Corn plant response rating (corn; [7]): 2
- Plant response rating, Morningglory (morningglory; [1]): 4
- Morningglory plant response rating (morningglory; [2]): 4
- Morningglory plant response rating (morningglory; [3]): 0
- Plant response rating, Morningglory (morningglory; [4]): 0
- Morningglory plant response rating (morningglory; [5]): 0
- Morningglory plant response rating (morningglory; [6]): 4
- Morningglory plant response rating (morningglory; [7]): 8
- Plant response rating, B. signalgrass (surinam grass; [1]): 5
- B. signalgrass plant response rating (surinam grass; [2]): 5
- B. signalgrass plant response rating (surinam grass; [3]): 8
- Plant response rating, B. signalgrass (surinam grass; [4]): 8
- B. signalgrass plant response rating (surinam grass; [5]): 8
- Plant response rating, B. signalgrass (surinam grass; [8]): 9
- B. signalgrass plant response rating (surinam grass; [6]): 6
- B. signalgrass plant response rating (surinam grass; [7]): 7
- Plant response rating, Cocklebur (cocklebur; [1]): 0
- Cocklebur plant response rating (cocklebur; [2]): 0
- Cocklebur plant response rating (cocklebur; [3]): 0
- Plant response rating, Cocklebur (cocklebur; [4]): 0
- Cocklebur plant response rating (cocklebur; [5]): 0
- Plant response rating, Cocklebur (cocklebur; [8]): 0
- Cocklebur plant response rating (cocklebur; [6]): 0
- Cocklebur plant response rating (cocklebur; [7]): 0
- Plant response rating, Soybean (soybean; [1]): 3
- Soybean plant response rating (soybean; [2]): 4
- Soybean plant response rating (soybean; [3]): 0
- Plant response rating, Soybean (soybean; [4]): 0
- Soybean plant response rating (soybean; [5]): 3
- Soybean plant response rating (soybean; [6]): 4
- Soybean plant response rating (soybean; [7]): 5
- Plant response rating, Giant foxtail (giant foxtail; [1]): 8
- Giant foxtail plant response rating (giant foxtail; [2]): 8
- Giant foxtail plant response rating (giant foxtail; [3]): 10
- Plant response rating, Giant foxtail (giant foxtail; [4]): 10
- Giant foxtail plant response rating (giant foxtail; [5]): 10
- Giant foxtail plant response rating (giant foxtail; [6]): 9
- Giant foxtail plant response rating (giant foxtail; [7]): 9
- Plant response rating, Blackgrass (blackgrass; [1]): 5
- Blackgrass plant response rating (blackgrass; [2]): 6
- Blackgrass plant response rating (blackgrass; [3]): 9
- Plant response rating, Blackgrass (blackgrass; [4]): 9
- Blackgrass plant response rating (blackgrass; [5]): 9
- Plant response rating, Blackgrass (blackgrass; [8]): 10
- Blackgrass plant response rating (blackgrass; [6]): 6
- Blackgrass plant response rating (blackgrass; [7]): 6
- Plant response rating, Sugarbeets (sugar beet; [1]): 0
- Sugarbeets plant response rating (sugar beet; [2]): 0
- Sugarbeets plant response rating (sugar beet; [3]): 6
- Plant response rating, Sugarbeets (sugar beet; [4]): 6
- Sugarbeets plant response rating (sugar beet; [5]): 8
- Sugarbeets plant response rating (sugar beet; [6]): 3
- Sugarbeets plant response rating (sugar beet; [7]): 6
- Plant response rating, Redroot pigweed (pigweed; [1]): 8
- Redroot pigweed plant response rating (pigweed; [2]): 8
- Redroot pigweed plant response rating (pigweed; [3]): 8
- Plant response rating, Redroot pigweed (pigweed; [4]): 8
- Redroot pigweed plant response rating (pigweed; [5]): 10
- Redroot pigweed plant response rating (pigweed; [6]): 9
- Redroot pigweed plant response rating (pigweed; [7]): 9
- Plant response rating, Nutsedge (purple nutsedge; [1]): 0
- Nutsedge plant response rating (purple nutsedge; [2]): 0
- Plant response rating, Nutsedge (purple nutsedge; [4]): 0
- Nutsedge plant response rating (purple nutsedge; [5]): 0
- Nutsedge plant response rating (purple nutsedge; [6]): 0
- Nutsedge plant response rating (purple nutsedge; [7]): 3
